Experimental data reported in patent publication US20240327364A1, “THERAPEUTIC TARGETING OF GPR68 TO INDUCE FERROPTOSIS” (University Of Maryland, Baltimore, priority 2023, published 2024).

Columns and labels:
[1] = molecular target: T1, EPHA8 (Homo sapiens, UniProt P29322); test: KinomeScan; type: binding; conditions: read-out: % Control
T1 construct: purchased DiscoveRx (Fremont, CA)

[2] = molecular target: T2, NIM1 (Homo sapiens, UniProt Q8IY84); test: KinomeScan; type: binding; conditions: read-out: % Control
T2 construct: purchased DiscoveRx

[3] = molecular target: T3, S1P4 (Homo sapiens, UniProt O95977); test: GPCR Profiler; type: cell-based
T3 construct: host or cells: Chem-1 cells with Gα15

[4] = molecular target: T4, SNRK (Homo sapiens, UniProt Q9NRH2); test: KinomeScan; type: binding; conditions: read-out: % Control
T4 construct: purchased DiscoveRx (Fremont, CA)

[5] = molecular target: T5, ERBB4 (Homo sapiens, UniProt Q15303); test: KinomeScan; type: binding; conditions: read-out: % Control
T5 construct: purchased DiscoveRx (Fremont, CA)

[6] = molecular target: T6, FYN (Homo sapiens, UniProt P06241); test: KinomeScan; type: binding; conditions: read-out: % Control
T6 construct: purchased DiscoveRx (Fremont, CA)

[7] = molecular target: T7, LTK (Homo sapiens, UniProt P29376); test: KinomeScan; type: binding; conditions: read-out: % Control
T7 construct: purchased DiscoveRx

[8] = molecular target: T8, CDK4-cyclinD1 (Homo sapiens, UniProt P11802); test: KinomeScan; type: binding; conditions: read-out: % Control
T8 construct: purchased DiscoveRx (KinomeScan service)

[9] = molecular target: T9, NK1 (Homo sapiens, UniProt P25103); test: GPCR Profiler; type: cell-based
T9 construct: host or cells: Chem-1 cells expressing Gα15

[10] = molecular target: T10, EP4 (Homo sapiens, UniProt P35408); test: GPCR Profiler; type: cell-based
T10 construct: host or cells: Chem-1 cells expressing Gα15

[11] = molecular target: T11, FLT3(R834Q) (Homo sapiens, UniProt P36888, R834Q); test: KinomeScan; type: binding; conditions: read-out: % Control
T11 construct: purchased DiscoveRx (Fremont, CA)

[12] = molecular target: T12, PTH2 (Homo sapiens, UniProt P49190); test: GPCR Profiler; type: cell-based
T12 construct: host or cells: Chem-1 cells with Gα15

[13] = molecular target: T13, MAST1 (Homo sapiens, UniProt Q9Y2H9); test: KinomeScan; type: binding; conditions: read-out: % Control
T13 construct: purchased DiscoveRx (Fremont, CA)

[14] = molecular target: T14, MC2 (Homo sapiens, UniProt Q01718); test: GPCR Profiler; type: cell-based
T14 construct: host or cells: Chem-1 cells with promiscuous Gα15

[15] = molecular target: T15, EPHB4 (Homo sapiens, UniProt P54760); test: KinomeScan; type: binding; conditions: read-out: % Control
T15 construct: purchased DiscoveRx (Fremont, CA)

[16] = molecular target: T16, TBK1 (Homo sapiens, UniProt Q9UHD2); test: KinomeScan; type: binding; conditions: read-out: % Control
T16 construct: purchased DiscoveRx (Fremont, CA)

[17] = molecular target: T17, ABL1-phosphorylated (Homo sapiens, UniProt P00519); test: KinomeScan; type: binding; conditions: read-out: % Control
T17 construct: purchased DiscoveRx

[18] = molecular target: T18, STK39 (Homo sapiens, UniProt Q9UEW8); test: KinomeScan; type: binding; conditions: read-out: % Control
T18 construct: purchased DiscoveRx (Fremont, CA)

[19] = molecular target: T19, GPR91 (Homo sapiens, UniProt Q9BXA5); test: GPCR Profiler; type: cell-based
T19 construct: host or cells: Chem-1 cells with promiscuous Gα15

[20] = molecular target: T20, PK2 (Homo sapiens, UniProt Q8NFJ6); test: GPCR Profiler; type: cell-based
T20 construct: host or cells: Chem-1 cells with Gα15

[21] = molecular target: CSK (Homo sapiens, UniProt P41240); test: KinomeScan; type: binding; conditions: read-out: % Control
[22] = molecular target: T21, CCR4 (Homo sapiens, UniProt P51679); test: GPCR Profiler; type: cell-based
T21 construct: host or cells: Chem-1 cells with Gα15

[23] = molecular target: T22, MET (Homo sapiens, UniProt P08581); test: KinomeScan; type: binding; conditions: read-out: % Control
T22 construct: purchased DiscoveRx (Fremont, CA)

[24] = molecular target: T23, GAL2 (Homo sapiens, UniProt O43603); test: GPCR Profiler; type: cell-based
T23 construct: host or cells: Chem-1 cells expressing Gα15

[25] = molecular target: T24, EPHA6 (Homo sapiens, UniProt Q9UF33); test: KinomeScan; type: binding; conditions: read-out: % Control
T24 construct: purchased DiscoveRx (Fremont, CA)

[26] = molecular target: T25, ICK (Homo sapiens, UniProt Q9UPZ9); test: KinomeScan; type: binding; conditions: read-out: % Control
T25 construct: purchased DiscoveRx (Fremont, CA)

[27] = molecular target: T26, PIK3CA(E542K) (Homo sapiens, UniProt P42336, E542K); test: KinomeScan; type: binding; conditions: read-out: % Control
T26 construct: purchased DiscoveRx (Fremont, CA)

[28] = molecular target: T27, PIPSK1C (Homo sapiens, UniProt O60331); test: KinomeScan; type: binding; conditions: read-out: % Control
T27 construct: purchased DiscoveRx (Fremont, CA)

[29] = molecular target: T28, GIP (Homo sapiens, UniProt P48546); test: GPCR Profiler; type: cell-based
T28 construct: host or cells: Chem-1 cells expressing Gα15

[30] = molecular target: T29, MAP3K4 (Homo sapiens, UniProt Q9Y6R4); test: KinomeScan; type: binding; conditions: read-out: % Control
T29 construct: purchased DiscoveRx (Fremont, CA)

[31] = system: U87; test: Western blot (TFRC, HO-1, cleaved caspase 3); type: cell-based, human
Procedure: Using Pierce™ BCA Protein Assay Kit (ThermoFisher Scientific™), protein concentrations were determined for each sample following manufacturing protocol. Gel electrophoresis was conducted on NuPAGE™ 4-12% Bis-Tris gels (Invitrogen™) using 20 ug of total protein per sample. Proteins were transferred to PVDF membranes by semi-dry transfer. Membranes were blocked using Intercept® (PBS) Blocking Buffer (LI-COR™) for one hour at room temperature on a tilting shaker. Primary antibodies in 5% non-fat dry milk were added to the membranes for overnight incubation at 4° C. on a rotating shaker. Primary antibodies included transferrin receptor (TFRC), heme-oxygenase 1 (HO-1), and cleaved caspase 3 with GAPDH and α-tubulin used as normalization controls. The next day, membranes were washed in three, five-minute intervals with PBST (Tween 0.5%). Corresponding secondary HRP-conjugated antibodies in 5% non-fat dry milk were added to incubate at room temperature for one hour on a tilting shaker. The membranes were washed with PBST in four, five-minute intervals before protein visualization using Radiance Q (Azure Biosystems™) on Bio-Rad™ ChemiDoc™ MP Imaging System. Protein quantification was completed in triplicate using Fiji software package.

T21 sequence (P51679 whole entry): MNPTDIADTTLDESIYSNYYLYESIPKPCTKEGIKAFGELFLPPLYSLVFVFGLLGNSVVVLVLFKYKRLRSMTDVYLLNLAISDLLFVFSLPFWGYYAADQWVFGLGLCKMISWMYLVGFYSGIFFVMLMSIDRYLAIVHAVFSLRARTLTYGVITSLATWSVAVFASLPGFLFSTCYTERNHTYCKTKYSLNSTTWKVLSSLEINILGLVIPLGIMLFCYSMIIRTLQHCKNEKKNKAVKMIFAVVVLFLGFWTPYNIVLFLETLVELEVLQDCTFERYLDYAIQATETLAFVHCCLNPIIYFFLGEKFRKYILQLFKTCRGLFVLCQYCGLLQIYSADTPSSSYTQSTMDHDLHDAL
T20 sequence (Q8NFJ6 whole entry): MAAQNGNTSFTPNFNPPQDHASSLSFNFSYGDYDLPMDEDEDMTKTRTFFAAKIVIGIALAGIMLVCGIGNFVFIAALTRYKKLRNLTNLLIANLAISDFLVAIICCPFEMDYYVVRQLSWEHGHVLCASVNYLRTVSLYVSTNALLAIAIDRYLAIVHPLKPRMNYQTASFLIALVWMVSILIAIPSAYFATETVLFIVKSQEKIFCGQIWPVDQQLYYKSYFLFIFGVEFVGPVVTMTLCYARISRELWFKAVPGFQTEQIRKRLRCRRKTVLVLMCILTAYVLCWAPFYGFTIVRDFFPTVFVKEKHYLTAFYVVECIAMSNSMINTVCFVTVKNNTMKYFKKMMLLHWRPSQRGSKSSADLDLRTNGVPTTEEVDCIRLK
T10 sequence (P35408 whole entry): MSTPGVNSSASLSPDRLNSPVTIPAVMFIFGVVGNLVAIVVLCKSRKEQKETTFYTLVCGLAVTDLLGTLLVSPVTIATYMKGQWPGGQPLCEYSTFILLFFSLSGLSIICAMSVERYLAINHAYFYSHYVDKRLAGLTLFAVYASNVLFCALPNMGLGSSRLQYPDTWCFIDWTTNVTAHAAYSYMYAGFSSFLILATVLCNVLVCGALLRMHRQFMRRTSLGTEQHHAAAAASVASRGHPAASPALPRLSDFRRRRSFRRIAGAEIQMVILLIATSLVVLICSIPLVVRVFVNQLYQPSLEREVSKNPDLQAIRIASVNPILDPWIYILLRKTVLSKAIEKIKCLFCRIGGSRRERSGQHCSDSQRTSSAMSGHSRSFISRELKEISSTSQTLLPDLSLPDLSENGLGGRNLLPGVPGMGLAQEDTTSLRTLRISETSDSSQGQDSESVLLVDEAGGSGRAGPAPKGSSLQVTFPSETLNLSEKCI
T28 sequence (P48546 22-466): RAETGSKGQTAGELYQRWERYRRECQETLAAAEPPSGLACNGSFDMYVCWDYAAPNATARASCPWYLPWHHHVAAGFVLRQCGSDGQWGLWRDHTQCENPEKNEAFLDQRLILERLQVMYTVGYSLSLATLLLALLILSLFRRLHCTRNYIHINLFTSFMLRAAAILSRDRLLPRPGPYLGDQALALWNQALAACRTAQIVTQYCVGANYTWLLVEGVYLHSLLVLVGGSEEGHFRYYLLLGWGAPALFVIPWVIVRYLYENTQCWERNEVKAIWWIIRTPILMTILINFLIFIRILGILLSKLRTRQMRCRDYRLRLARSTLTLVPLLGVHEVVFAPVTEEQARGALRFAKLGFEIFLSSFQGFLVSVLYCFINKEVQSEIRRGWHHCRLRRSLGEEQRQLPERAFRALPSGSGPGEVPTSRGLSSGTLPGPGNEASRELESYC
T12 sequence (P49190 25-550): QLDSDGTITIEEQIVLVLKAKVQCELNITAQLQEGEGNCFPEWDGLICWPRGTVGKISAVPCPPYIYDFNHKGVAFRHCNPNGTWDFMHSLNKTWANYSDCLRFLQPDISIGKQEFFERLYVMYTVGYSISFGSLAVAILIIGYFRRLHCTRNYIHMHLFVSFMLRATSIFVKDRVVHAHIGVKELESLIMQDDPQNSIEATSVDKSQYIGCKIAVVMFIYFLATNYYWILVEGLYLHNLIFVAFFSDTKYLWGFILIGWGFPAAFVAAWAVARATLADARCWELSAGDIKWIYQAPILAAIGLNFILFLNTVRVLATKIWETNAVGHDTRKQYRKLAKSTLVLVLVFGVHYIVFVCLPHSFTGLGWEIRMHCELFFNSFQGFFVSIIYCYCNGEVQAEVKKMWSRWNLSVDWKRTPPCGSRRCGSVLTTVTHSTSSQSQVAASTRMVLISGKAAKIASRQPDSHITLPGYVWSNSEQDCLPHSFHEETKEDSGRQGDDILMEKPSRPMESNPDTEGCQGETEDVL
T9 sequence (P25103 whole entry): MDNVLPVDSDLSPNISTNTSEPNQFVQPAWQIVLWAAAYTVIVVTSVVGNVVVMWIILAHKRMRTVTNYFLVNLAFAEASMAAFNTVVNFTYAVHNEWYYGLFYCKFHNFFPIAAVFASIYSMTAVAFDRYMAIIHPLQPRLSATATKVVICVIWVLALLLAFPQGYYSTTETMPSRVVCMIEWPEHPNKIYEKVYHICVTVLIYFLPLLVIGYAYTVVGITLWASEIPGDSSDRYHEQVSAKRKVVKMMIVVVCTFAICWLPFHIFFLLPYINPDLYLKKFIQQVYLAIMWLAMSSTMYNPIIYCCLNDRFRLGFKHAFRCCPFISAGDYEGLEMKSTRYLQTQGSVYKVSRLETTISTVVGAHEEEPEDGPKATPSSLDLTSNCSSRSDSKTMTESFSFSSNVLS
T23 sequence (O43603 whole entry): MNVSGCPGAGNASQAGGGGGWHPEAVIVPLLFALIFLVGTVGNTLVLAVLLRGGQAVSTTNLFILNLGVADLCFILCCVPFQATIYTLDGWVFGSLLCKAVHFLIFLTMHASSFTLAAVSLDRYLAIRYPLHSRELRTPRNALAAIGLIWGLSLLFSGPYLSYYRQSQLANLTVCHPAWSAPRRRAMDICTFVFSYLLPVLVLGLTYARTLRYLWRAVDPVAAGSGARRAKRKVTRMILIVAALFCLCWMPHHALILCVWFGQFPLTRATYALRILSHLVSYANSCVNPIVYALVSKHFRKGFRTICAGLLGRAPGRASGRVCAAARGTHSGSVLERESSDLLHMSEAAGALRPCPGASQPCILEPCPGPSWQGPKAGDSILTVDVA
T14 sequence (Q01718 whole entry): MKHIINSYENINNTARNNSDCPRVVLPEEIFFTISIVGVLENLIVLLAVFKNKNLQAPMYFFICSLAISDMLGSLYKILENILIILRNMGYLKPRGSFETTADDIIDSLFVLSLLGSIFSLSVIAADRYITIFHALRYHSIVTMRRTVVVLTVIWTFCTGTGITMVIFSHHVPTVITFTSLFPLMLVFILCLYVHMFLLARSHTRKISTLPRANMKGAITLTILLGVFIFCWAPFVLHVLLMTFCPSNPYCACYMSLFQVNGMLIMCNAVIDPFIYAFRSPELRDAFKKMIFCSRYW
T14 sequence (Q8TCY5 whole entry partner): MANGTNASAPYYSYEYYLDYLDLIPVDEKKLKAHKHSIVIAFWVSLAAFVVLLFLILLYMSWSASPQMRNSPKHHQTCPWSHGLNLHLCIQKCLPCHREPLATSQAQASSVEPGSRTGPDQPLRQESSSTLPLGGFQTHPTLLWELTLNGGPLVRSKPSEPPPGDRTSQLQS
T3 sequence (O95977 whole entry, species assumed): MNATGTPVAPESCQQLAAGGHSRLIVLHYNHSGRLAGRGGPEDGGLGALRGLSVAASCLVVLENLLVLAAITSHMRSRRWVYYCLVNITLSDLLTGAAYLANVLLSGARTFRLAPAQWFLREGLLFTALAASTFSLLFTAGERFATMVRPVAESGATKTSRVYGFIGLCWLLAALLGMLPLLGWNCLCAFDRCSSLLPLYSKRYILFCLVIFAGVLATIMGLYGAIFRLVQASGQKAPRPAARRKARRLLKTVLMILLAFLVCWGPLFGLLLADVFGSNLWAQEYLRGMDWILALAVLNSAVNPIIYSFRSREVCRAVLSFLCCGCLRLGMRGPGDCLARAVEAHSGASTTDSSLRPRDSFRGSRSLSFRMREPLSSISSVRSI
T19 sequence (Q9BXA5 whole entry, species assumed): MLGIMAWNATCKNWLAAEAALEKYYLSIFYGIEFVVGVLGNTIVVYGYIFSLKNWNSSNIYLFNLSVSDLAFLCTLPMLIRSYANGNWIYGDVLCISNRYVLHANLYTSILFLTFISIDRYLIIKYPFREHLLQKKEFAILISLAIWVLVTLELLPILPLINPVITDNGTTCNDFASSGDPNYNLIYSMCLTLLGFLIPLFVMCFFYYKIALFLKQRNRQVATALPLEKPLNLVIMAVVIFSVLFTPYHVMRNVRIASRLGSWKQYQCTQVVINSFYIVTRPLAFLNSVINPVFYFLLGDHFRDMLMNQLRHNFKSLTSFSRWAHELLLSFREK
T2 sequence (Q8IY84 whole entry): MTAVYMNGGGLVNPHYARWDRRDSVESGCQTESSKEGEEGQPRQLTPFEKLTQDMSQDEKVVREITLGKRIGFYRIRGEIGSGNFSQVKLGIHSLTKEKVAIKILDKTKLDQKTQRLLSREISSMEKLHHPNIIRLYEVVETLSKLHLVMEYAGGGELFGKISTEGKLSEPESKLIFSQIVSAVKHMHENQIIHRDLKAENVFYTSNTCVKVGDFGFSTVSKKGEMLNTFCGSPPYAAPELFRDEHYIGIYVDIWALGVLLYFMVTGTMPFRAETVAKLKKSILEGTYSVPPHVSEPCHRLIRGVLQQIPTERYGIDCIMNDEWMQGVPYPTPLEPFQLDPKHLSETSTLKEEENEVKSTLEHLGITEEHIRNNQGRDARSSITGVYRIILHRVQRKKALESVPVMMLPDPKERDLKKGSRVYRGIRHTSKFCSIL
T17 sequence (P00519 242-493 limits assumed): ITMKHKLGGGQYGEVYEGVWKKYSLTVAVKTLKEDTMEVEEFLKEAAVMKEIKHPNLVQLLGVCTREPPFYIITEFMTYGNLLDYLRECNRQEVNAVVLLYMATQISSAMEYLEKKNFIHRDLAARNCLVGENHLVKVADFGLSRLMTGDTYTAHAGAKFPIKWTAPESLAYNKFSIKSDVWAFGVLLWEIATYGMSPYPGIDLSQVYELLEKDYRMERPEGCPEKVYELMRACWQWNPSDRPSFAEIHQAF

For CCc1ccc2c(c1)C1(NN=C(c3cccc4ccccc34)S1)C(=O)N2 (stereo not drawn) [OGM1, 5-ethyl-5′-naphthalen-1-ylspiro[1H-indole-3,2′-3H-1,3,4-thiadiazole]-2-one], the remaining binding at 10 µM [1] was 100%, the remaining binding at 10 µM [2] was 96% and the Antagonism ([3]; 10 uM) was −5.2. For the same compound, the Agonism ([3]; 12.5 uM) was 0.3, the remaining binding at 10 µM [4] was 100% and the remaining binding at 10 µM [5] was 100%. For the same compound, the remaining binding at 10 µM [6] was 100%, the remaining binding at 10 µM [7] was 100% and the remaining binding at 10 µM [8] was 69%. It also gave an Antagonism ([9]; 10 uM) of −1.4, an Agonism ([9]; 12.5 uM) of −1.5 and an Antagonism ([10]; 10 uM) of −17. The Agonism ([10]; 12.5 uM) was 0.9, the remaining binding at 10 µM [11] was 100% and the Antagonism ([12]; 10 uM) was −19.2. It also gave an Agonism ([12]; 12.5 uM) of 1.1, a remaining binding at 10 µM [13] of 58% and an Antagonism ([14]; 10 uM) of 3.9. For the same compound, the Agonism ([14]; 12.5 uM) was 0.1, the remaining binding at 10 µM [15] was 100% and the remaining binding at 10 µM [16] was 90%. The remaining binding at 10 µM [17] was 93%, the remaining binding at 10 µM [18] was 59% and the Antagonism ([19]; 10 uM) was −5.4. For the same compound, the Agonism ([19]; 12.5 uM) was 1.2, the Antagonism ([20]; 10 uM) was 7.2 and the Agonism ([20]; 12.5 uM) was −0.1. The remaining binding at 10 µM [21] was 83%, the Antagonism ([22]; 10 uM) was −4.1 and the Agonism ([22]; 12.5 uM) was −0.7. For the same compound, the remaining binding at 10 µM [23] was 100%, the Antagonism ([24]; 10 uM) was 1 and the Agonism ([24]; 12.5 uM) was 0.4. The remaining binding at 10 µM [25] was 100%, the remaining binding at 10 µM [26] was 81% and the remaining binding at 10 µM [27] was 73%. It also gave a remaining binding at 10 µM [28] of 97%, an Antagonism ([29]; 10 uM) of 0.2 and an Agonism ([29]; 12.5 uM) of 1.5. For the same compound, the remaining binding at 10 µM [30] was 100%.

CCc1ccc2c(c1)C1(NN=C(c3ccccc3)S1)C(=O)N2 (stereo not drawn) [OGM2] was tested, and the “cleaved caspase 3 level” value [31] was “did not increase” and the “protein levels of TFRC and HO-1” value [31] was “significantly increased”.
